Paper PMC4792582, “Effect of ceritinib (LDK378) on enhancement of chemotherapeutic agents in ABCB1 and ABCG2 overexpressing cells in vitro and in vivo” (Oncotarget, 2015)

Experiments:
ABCG2 (BCRP/MXR) [1] = biological target: T1, ABCG2 (BCRP/MXR) (Homo sapiens, UniProt Q9UNQ0); test: competition of […]-IAAP photoaffinity labeling in membranes; also effect on vanadate-sensitive ATPase activity; type: binding; design: Crude membranes from High Five insect cells expressing ABCG2
T1 sequence (Q9UNQ0 1-655): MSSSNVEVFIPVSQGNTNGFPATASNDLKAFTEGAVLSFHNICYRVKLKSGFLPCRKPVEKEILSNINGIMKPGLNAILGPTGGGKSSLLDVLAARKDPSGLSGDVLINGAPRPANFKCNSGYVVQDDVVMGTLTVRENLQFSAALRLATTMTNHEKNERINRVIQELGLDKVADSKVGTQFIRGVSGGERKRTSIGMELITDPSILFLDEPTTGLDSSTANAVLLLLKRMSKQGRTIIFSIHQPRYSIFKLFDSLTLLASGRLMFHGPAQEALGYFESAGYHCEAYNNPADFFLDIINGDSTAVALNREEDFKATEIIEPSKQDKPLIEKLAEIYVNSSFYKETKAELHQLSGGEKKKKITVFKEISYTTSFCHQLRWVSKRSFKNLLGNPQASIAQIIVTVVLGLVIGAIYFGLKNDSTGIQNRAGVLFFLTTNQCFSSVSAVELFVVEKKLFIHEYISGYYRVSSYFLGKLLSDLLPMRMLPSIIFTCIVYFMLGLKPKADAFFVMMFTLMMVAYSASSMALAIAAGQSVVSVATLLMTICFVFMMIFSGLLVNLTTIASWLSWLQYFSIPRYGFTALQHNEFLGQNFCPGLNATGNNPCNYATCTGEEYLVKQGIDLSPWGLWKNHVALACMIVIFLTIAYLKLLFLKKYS

ABCG2 (BCRP/MXR) [2] = biological target: T1, ABCG2 (BCRP/MXR); test: reversal of mitoxantrone resistance in ABCG2-transfected versus mock HEK293 cells (MTT), […]; type: cell-based; design: HEK293/ABCG2-R2 stably transfected cells

Row | Compound | competition of [125I]-IAAP photoaffinity labeling in membranes; also effect on v (ABCG2 (BCRP/MXR) [1]) | (fold-reversal) / HEK293/ABCB1 (ABCG2 (BCRP/MXR) [2]) [fold-reversal]
1 | Cc1cc(Nc2ncc(Cl)c(Nc3ccccc3S(=O)(=O)C(C)C)n2)c(OC(C)C)cc1C1CCNCC1 [Ceritinib, 5-chloro-N2-(2-isopropoxy-5-methyl-4-(piperidin-4-yl)phenyl)-N4-(2-(isopropylsulfonyl)phenyl)pyrimidine-2,4-diamine] | ceritinib binds with high affinity to both the ABCB1 and ABCG2 substrate-binding sites | 
2 | COc1ccc2c3c([nH]c2c1)[C@H](C=C(C)C)N1C(=O)[C@@H]2CCCN2C(=O)[C@@H]1C3 [Fumitremorgin C] |  | 26.81
